Reference: patent US6107068A, “Coenzyme A disulfide reductase, and inhibitors thereof useful as antimicrobial agents” (The University of British Columbia, priority 1997, dated 2000)

Key:
[1] = biological target: S. aureus coenzyme A disulfide reductase (Staphylococcus aureus, UniProt O52582); experiment: Steady state kinetic analysis of NADPH oxidation by disulfide substrates catalyzed by purified CoADR (340 nm)
Experimental: (§1) DTNB assays were performed in Tris-HCl (20 mM), pH 8.0, containing EDTA (1 mM) (TE buffer), and were monitored at 412 nm for the nitrobenzothiolate anion (e^412 =15,600 M^-1 cm^-1 (Ellman (1959) Arch. Biochem. Biophys. 82:70-77)). […] For kinetic analysis of purified CoADR activity, the oxidation of NADPH was measured as the decrease in absorbance at 340 nm (De^340 =6,220 M^-1 cm^-1), and was carried out in Tris-HCl (50 mM), pH 7.8, containing NaCl (50 mM).
(§2) The specificity of CoADR for these substrates and various other biological disulfides were quantitated kinetically. Kinetic measurements were performed in a 1 cm path-length quartz cuvette maintained at 37° C. […] Enzyme and NADPH were combined in buffer and equilibrated to 37° C., and the reaction was initialized by the addition of the disulfide substrate. The activity of CoADR was monitored at 340 nm as the decrease in absorbance resulting from the oxidation of NADPH. All kinetic measurements were recorded in the linear range, and at least seven substrate concentrations were used for each analysis. Kinetic constants were calculated from a linear least squares fit of the initial velocity data to the Michaelis-Menton equation using the program HyperO.

[2] = background statement, Newton et al. (1996); cited from earlier work
[3] = Cu2+ catalyzed oxidation of thiols (remaining thiol by DTNB); type: physicochemical; conditions: thiol 1 mM, CuCl2 1 mM, Tris-HCl pH 7.5, ambient temperature
Experimental: To determine the relative stability of CoA to heavy metal-catalyzed oxidation, the rate of Cu^2+ catalyzed oxidation of cysteine, GSH, and CoA were compared. Each sample (2 ml) of thiol (1 mM) in Tris-HCl buffer (20 mM), pH 7.5, containing CuCl2 (1 mM) was incubated at ambient temperature. Thiol determination was then carried out at various times by adding aliquots ([…]) from each sample to a solution ([…]) of DTNB (1 mM) in Tris-HCl buffer (20 mM), pH 8.0, containing EDTA (1 mM). The absorbance of these samples at 412 nm was measured and the concentration of remaining thiol determined.

[4] = biological target: Coenzyme A disulfide reductase (CoADR) in extracts of Staphylococcus aureus (Staphylococcus aureus, UniProt O52582); experiment: Pyridine nucleotide and disulfide dependent reduction of DTNB by dialyzed S. aureus extracts; type: biochemical
Experimental: Concentrations of […] (and dephosphoCoA disulfide) were measured spectrophotometrically at 340 nm (e^340 =6220 M^-1 cm^-1), 260 nm (e^260 =33,600 M^-1 cm^-1), and 450 nm (e^450 =11,000 M^-1 cm^-1), respectively. DTNB assays were performed in Tris-HCl (20 mM), pH 8.0, containing EDTA (1 mM) (TE buffer), and were monitored at 412 nm for the nitrobenzothiolate anion (e^412 =15,600 M^-1 cm^-1 (Ellman (1959) Arch. Biochem. Biophys. 82:70-77)). Protein concentrations were determined by reaction with bicinchoninic acid and copper sulfate (Deutscher (1990) in Meth. Enzymol., vol. 182. San Diego: Academic Press, Inc.). During purification, CoADR activity in crude extracts was monitored by the NADPH and CoA disulfide dependent reduction of DTNB. DTNB and all substrates were added at 0.1 mM. For kinetic analysis of purified CoADR activity, the oxidation of NADPH was measured as the decrease in absorbance at 340 nm (De^340 =6,220 M^-1 cm^-1), and was carried out in Tris-HCl (50 mM), pH 7.8, containing NaCl (50 mM).
In order to identify the enzyme responsible for maintaining CoA in its reduced form, S. aureus extracts were analyzed for a disulfide reductase specific for CoA disulfide. An overnight culture (10 ml) of R8325-4 was centrifuged (5,000×g, 10 min), resuspended in 3 ml of TE buffer containing lysostaphin (5 mg/ml), and incubated at 37° C. for 30 min until the suspension became viscous. Glass beads (1 g) and PMSF (to 1 mM) were added, the mixture was vortexed for two minutes and then centrifuged (14,000×g, 10 min) to remove the insoluble cellular debris. The resulting viscous lysate was dialyzed exhaustively (3,600 Mr cutoff) against TE buffer. The dialysate was then assayed for the pyridine nucleotide (1 mM) and CoA disulfide (1 mM) dependent reduction of DTNB (1 mM).

[5] = test system: CC(C)(COP(=O)(O)O)[C@@H](O)C(=O)NCCC(=O)NCCSSCCNC(=O)CCNC(=O)[C@H](O)C(C)(C)COP(=O)(O)O; experiment: purified protein, by the assay type; conditions: other: disulfide substrate varied, NADPH maintained at 200 mM, 37° C., nd = no activity detected
Experimental: as §1, §2

[6] = test system: CC(C)(COP(=O)(O)OP(=O)(O)OC[C@H]1O[C@@H](n2cnc3c(N)ncnc32)[C@H](O)[C@@H]1O)[C@@H](O)C(=O)NCCC(=O)NCCSSCCNC(=O)CCNC(=O)[C@H](O)C(C)(C)COP(=O)(O)OP(=O)(O)OC[C@H]1O[C@@H](n2cnc3c(N)ncnc32)[C@H](O)[C@@H]1O; experiment: purified protein, by the assay type; conditions: other: disulfide substrate varied, NADPH maintained at 200 mM, 37° C., nd = no activity detected
Experimental: as §1, §2

[7] = test system: CC(C)(COP(=O)(O)OP(=O)(O)OC[C@H]1O[C@@H](n2cnc3c(N)ncnc32)[C@H](O)[C@@H]1OP(=O)(O)O)[C@@H](O)C(=O)NCCC(=O)NCCSSCCNC(=O)CCNC(=O)[C@H](O)C(C)(C)COP(=O)(O)OP(=O)(O)OC[C@H]1O[C@@H](n2cnc3c(N)ncnc32)[C@H](O)[C@@H]1OP(=O)(O)O; experiment: purified protein, by the assay type; conditions: other: disulfide substrate varied, NADPH maintained at 200 mM, 37° C., nd = no activity detected
Experimental: as §1, §2

[8] = test system: CC(C)(COP(=O)(O)OP(=O)(O)OC[C@H]1O[C@@H](n2cnc3c(N)ncnc32)[C@H](O)[C@@H]1OP(=O)(O)O)[C@@H](O)C(=O)NCCC(=O)NCCSSC[C@H](NC(=O)CC[C@H](N)C(=O)O)C(=O)NCC(=O)O; experiment: purified protein, by the assay type; conditions: other: disulfide substrate varied, NADPH maintained at 200 mM, 37° C., nd = no activity detected
Experimental: as §1, §2

[9] = test system: NC(=O)C1=CN([C@@H]2O[C@H](COP(=O)(O)OP(=O)(O)OC[C@H]3O[C@@H](n4cnc5c(N)ncnc54)[C@H](OP(=O)(O)O)[C@@H]3O)[C@@H](O)[C@H]2O)C=CC1; experiment: purified protein, by the assay type
Experimental: as §1, §2

[10] = biological target: the molecule itself; experiment: gel exclusion chromatography of the native enzyme (approximately 85 kD) compared with SDS-PAGE of the subunit (~50 kD)
[11] = other: NADPH varied, CoA disulfide maintained at 120 mM, 37° C.

Sequence of Coenzyme A disulfide reductase (CoADR) in extracts of Staphylococcus aureus (O52582 2-438): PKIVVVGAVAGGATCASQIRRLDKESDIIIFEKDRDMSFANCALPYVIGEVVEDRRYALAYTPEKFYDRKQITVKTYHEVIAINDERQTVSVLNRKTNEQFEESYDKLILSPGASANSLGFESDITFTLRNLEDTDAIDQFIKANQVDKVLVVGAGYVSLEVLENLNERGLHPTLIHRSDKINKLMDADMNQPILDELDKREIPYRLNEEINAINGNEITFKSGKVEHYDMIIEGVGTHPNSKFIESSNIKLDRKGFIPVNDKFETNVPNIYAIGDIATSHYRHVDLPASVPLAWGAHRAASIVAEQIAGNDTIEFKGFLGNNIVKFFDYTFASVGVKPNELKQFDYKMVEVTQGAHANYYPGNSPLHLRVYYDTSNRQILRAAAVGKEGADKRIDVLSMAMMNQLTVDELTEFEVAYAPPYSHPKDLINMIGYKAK
Sequence of S. aureus coenzyme A disulfide reductase (O52582 2-438): as above

What does the source list for CC(C)(COP(=O)(O)OP(=O)(O)OC[C@H]1O[C@@H](n2cnc3c(N)ncnc32)[C@H](O)[C@@H]1O)[C@@H](O)C(=O)NCCC(=O)NCCSSCCNC(=O)CCNC(=O)[C@H](O)C(C)(C)COP(=O)(O)OP(=O)(O)OC[C@H]1O[C@@H](n2cnc3c(N)ncnc32)[C@H](O)[C@@H]1O [3'-dephospho-CoA disulfide]?
change in kcat as compared to CoA disulfide [1]: no detectable change; increase in Km as compared to CoA disulfide [1]: 10 fold

Which “kcat lower than for 3'-dephospho-CoA disulfide” value [1] does the source give for CC(C)(COP(=O)(O)O)[C@@H](O)C(=O)NCCC(=O)NCCSSCCNC(=O)CCNC(=O)[C@H](O)C(C)(C)COP(=O)(O)O [4,4'-diphospho-pantethine] here?
The value was 2-3 fold.

Which “stability to heavy metal-catalyzed auto-oxidation” value [2] does the source give for CC(C)(COP(=O)(O)OP(=O)(O)OC[C@H]1O[C@@H](n2cnc3c(N)ncnc32)[C@H](O)[C@@H]1OP(=O)(O)O)[C@@H](O)C(=O)NCCC(=O)NCCS [CoA, Coenzyme A] here?
The value was “slightly more stable than glutathione”.

With N[C@@H](CCC(=O)N[C@@H](CS)C(=O)NCC(=O)O)C(=O)O [GSH, g-glutamyl-cysteinyl-glycine] as the molecule, how does the “stability to copper-catalyzed autooxidation” value [3] read?
Its value is “much more stable than cysteine”.

With NC(=O)C1=CN([C@@H]2O[C@H](COP(=O)(O)OP(=O)(O)OC[C@H]3O[C@@H](n4cnc5c(N)ncnc54)[C@H](O)[C@@H]3O)[C@@H](O)[C@H]2O)C=CC1 [NADH] as the molecule, how does the “use in the CoA disulfide dependent reduction of DTNB” value [4] read?
Its value is “cannot be used”.

With N[C@@H](CSSC[C@H](N)C(=O)O)C(=O)O [cystine] as the molecule, how does the “function in the NADPH-dependent reduction of DTNB” value [4] read?
Its value is “did not function”.

What about the “turnover / activity with CoADR” value [1] of the same molecule?
Its value is “No activity could be detected”.

With CC(C)(CO)[C@@H](O)C(=O)NCCC(=O)NCCSSCCNC(=O)CCNC(=O)[C@H](O)C(C)(C)CO [pantethine] as the molecule, how does the “function in the NADPH-dependent reduction of DTNB” value [4] read?
Its value is “did not function”.

And the “turnover / activity with CoADR” value [1]?
Its value is “not turned over”.

What does the source list for “S. aureus coenzyme A disulfide reductase (Staphylococcus aureus subsp. aureus NCTC 8325)”?
Km [5]: 80 µM; Km [6]: 140 µM; Km [7]: 11 µM; Km [8]: 1100 µM; Km [9, 11]: 1.6 µM; kcat [9, 11]: 17 ± 1 s⁻¹; Km ([9]; other: at saturating CoA disulfide, 37.0 °C): 2 µM

B1: Coenzyme A disulfide reductase (CoADR) from Staphylococcus aureus (enzyme)
chain: PKIVVVGAVAGGATCASQIRRLDKESDIIIFEKDRDMSFANCALPYVIGEVVEDRRYALAYTPEKFYDRKQITVKTYHEVIAINDERQTVSVLNRKTNEQFEESYDKLILSPGASANSLGFESDITFTLRNLEDTDAIDQFIKANQVDKVLVVGAGYVSLEVLENLNERGLHPTLINRSDKINKLMDADMNQPILDELDKREIPYRLNEEINAINGNEITFKSGKVEHYDMIIEGVGTHPNSKFIESSNIKLDRKGFIPVNDKFETNVPNIYAIGDIATSHYRHVDLPASVPLAWGAHRAASIVAEQIAGNDTIEFKGFLGNNIVKFFDYTFASVGVKPNELKQFDYKMVEVTQGAHANYYPGNSPLHLRVYYDTSNRQILRAAAVGKEGADKRIDVLSMAMMNQLTVDELTEFEVAYAPPYSHPKDLINMIGYKAK
Does B1 bind [10]?
Result: binds
